Series [1] has as its system Smn protein in SMA patient fibroblast cells (GM03813). Briefly: Smn protein assay in cultured cells (SMN HTRF). The format is cell-based, human. Particulars: SMA patient fibroblast cells, 48 hours; for EC1.5x for Smn protein expression: 7-point concentration curve, SMN HTRF, concentration producing 1.5 times Smn protein vs DMSO vehicle control; for maximum fold (Fold) increase of Smn protein: 7-point concentration data, fold relative to vehicle control. In short, it runs like this:
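Read-out: HTRF 665/620 nm ratio, blank-subtracted as ΔF, then expressed as fold over DMSO vehicle. Fibroblasts from SMA patients were exposed to compounds for 48 h (7 points, 3.16-fold steps, triplicates). Values are EC1.5× and maximum fold Smn increase.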

For series [2], the system named is SMN2 minigene mRNA (SMN2-A minigene) in HEK293H cells. Briefly: SMN2 minigene mRNA splicing RT-qPCR assay in cultured cells. The format is cell-based, human. Particulars: Homo sapiens, HEK293-H; concentration increasing full length SMN2 mRNA 1.5-fold relative to vehicle-treated cells; HEK293H cells with SMN2-A minigene, 24 hours, 7-point concentration data; read-out: EC1.5x for production of full length SMN2 mRNA. In short, it runs like this:
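Read-out: minigene-specific full-length (exon 7-included) SMN2 mRNA by one-step multiplex RT-qPCR, normalized to GAPDH and divided by vehicle-treated level. Stable SMN2-A minigene HEK293H cells, 24 h compound exposure, 7 concentrations in duplicate. EC1.5× = concentration raising FL mRNA 1.5-fold.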

Where only a bound is given, the exact number is not on record here.

`CCN(CC)C[C@@H]1CCN(c2ccc3nc(-c4cc5c(C)nc(C)cn5n4)cc(=O)n3c2)C1` [Compound 778, 7-{(3S)-3-[(diethylamino)methyl]pyrrolidin-1-yl}-2-(4,6-dimethylpyrazolo[1,5-a]pyrazin-2-yl)-4H-pyrido[1,2-a]pyrimidin-4-one] returned a melting point of 194 to 196 °C. In addition, in series [1], the “EC1.5x for Smn protein expression” value was “*** (an EC1.5× between >0.3 μM and ≤1 μM is indicated by three stars (***))”; the “maximum fold (Fold) increase of Smn protein” value (from here on “maximum fold (Fold) increase”) is recorded as “***** (a fold increase >1.65 is indicated by five stars (*****))”. For the same compound, the EC (1.5-fold increase) in series [2] is < 0.1 µM.

In the case of `Cn1cc2cc(-c3cc(=O)n4cc(N5CCNCC5)ncc4n3)ccc2n1` [Compound 586, 2-(2-methyl-2H-indazol-5-yl)-7-(piperazin-1-yl)-4H-pyrazino[1,2-a]pyrimidin-4-one], the melting point is 160 to 162 °C. Also, in series [1], the “EC1.5x for Smn protein expression” value was “**** (an EC1.5x≤0.3 μM is indicated by four stars (****))” and the “maximum fold (Fold) increase” value is on record as “***** (a fold increase >1.65 is indicated by five stars (*****))”. In series [2], the EC (1.5-fold increase) lay within 0.1 to 0.3 µM.

In the case of `COc1cccc(-c2cc(=O)n3cc(N4CCNCC4)ccc3n2)c1` [Compound 22, 2-(3-methoxyphenyl)-7-(piperazin-1-yl)-4H-pyrido[1,2-a]pyrimidin-4-one], the melting point lay within 147 to 149 °C. Besides, in series [1], the “EC1.5x for Smn protein expression” value was “** (an EC1.5× between >1 μM and ≤3 μM is indicated by two stars (**))”; the “maximum fold (Fold) increase” value is “*** (a fold increase between >1.35 and ≤1.5 is indicated by three stars (***))”. The EC (1.5-fold increase) in series [2] lay within 0.3 to 1 µM.

Compound `CCN1CCN(c2ccc3nc(-c4cc(Cl)c5nc(C)cn5c4)cc(=O)n3c2)C[C@H]1C` [Compound 495, 2-(8-chloro-2-methylimidazo[1,2-a]pyridin-6-yl)-7-[(3R)-4-ethyl-3-methylpiperazin-1-yl]-4H-pyrido[1,2-a]pyrimidin-4-one] came in with a melting point of 239 to 245 °C. In addition, in series [1], the “EC1.5x for Smn protein expression” value is reported as “**** (an EC1.5x≤0.3 μM is indicated by four stars (****))” and the “maximum fold (Fold) increase” value is recorded as “***** (a fold increase >1.65 is indicated by five stars (*****))”. For the same compound, in series [2], the EC (1.5-fold increase) is < 0.1 µM.

`Cc1cn2nc(-c3cc(=O)n4cc(N5CCNCC5)cc(C)c4n3)cc2c(C)n1` [Compound 720, 2-(4,6-dimethylpyrazolo[1,5-a]pyrazin-2-yl)-9-methyl-7-(piperazin-1-yl)-4H-pyrido[1,2-a]pyrimidin-4-one] yielded a melting point of 254 to 264 °C. In series [1], the “EC1.5x for Smn protein expression” value is listed as “**** (an EC1.5x≤0.3 μM is indicated by four stars (****))” and the “maximum fold (Fold) increase” value is reported as “***** (a fold increase >1.65 is indicated by five stars (*****))”. Further, in series [2], the EC (1.5-fold increase) was < 0.1 µM.

The compound `Cc1nc2ccc(-c3cc(=O)n4cc(C5=CCN(C6CC6)CC5)ccc4n3)cc2s1` [Compound 395, 7-(1-cyclopropyl-1,2,3,6-tetrahydropyridin-4-yl)-2-(2-methyl-1,3-benzothiazol-6-yl)-4H-pyrido[1,2-a]pyrimidin-4-one] yielded a melting point of 158 to 160 °C. For the same compound, the “maximum fold (Fold) increase” value in series [1] was “** (a fold increase between >1.2 and ≤1.35 is indicated by two stars (**))”. Further, the EC (1.5-fold increase) in series [2] lay within 0.3 to 1 µM.

For `COc1ccc(-c2cc(=O)n3cc(N4CCNCC4)ccc3n2)cc1OC(F)(F)F` [Cpd 81, 2-[4-methoxy-3-(trifluoromethoxy)phenyl]-7-(piperazin-1-yl)-4H-pyrido[1,2-a]pyrimidin-4-one], the melting point lay in the range of 158 to 162 °C. Moreover, in series [1], the “maximum fold (Fold) increase” value is “** (a fold increase between >1.2 and ≤1.35 is indicated by two stars (**))”. Moreover, the EC (1.5-fold increase) in series [2] lay within 0.3 to 1 µM.

`COc1ccc(-c2cc(=O)n3cc(C4CCN(C)CC4)cc(C)c3n2)cc1OC` [Compound 252, 2-(3,4-dimethoxyphenyl)-9-methyl-7-(1-methylpiperidin-4-yl)-4H-pyrido[1,2-a]pyrimidin-4-one] yielded a melting point of 170 to 174 °C. Further, in series [1], the “EC1.5x for Smn protein expression” value was “*** (an EC1.5× between >0.3 μM and ≤1 μM is indicated by three stars (***))”; the “maximum fold (Fold) increase” value is “**** (a fold increase between >1.5 and ≤1.65 is indicated by four stars (****))”. Further, in series [2], the EC (1.5-fold increase) was 0.1 to 0.3 µM.

As to `CN(C)c1ccc(-c2cc(=O)n3cc(C4CCNCC4)ccc3n2)cn1` [Compound 465, 2-[6-(dimethylamino)pyridin-3-yl]-7-(piperidin-4-yl)-4H-pyrido[1,2-a]pyrimidin-4-one], the melting point lay in the range of 208 to 210 °C. Also, in series [1], the “maximum fold (Fold) increase” value is “*** (a fold increase between >1.35 and ≤1.5 is indicated by three stars (***))”. The EC (1.5-fold increase) in series [2] was 0.3 to 1 µM.

Compound `CN1CC=C(c2cn3c(=O)cc(-c4ccc5c(cnn5C)c4)nc3cn2)CC1` [Compound 506, 2-(1-methyl-1H-indazol-5-yl)-7-(1-methyl-1,2,3,6-tetrahydropyridin-4-yl)-4H-pyrazino[1,2-a]pyrimidin-4-one] returned a melting point of 234 to 236 °C. Moreover, in series [1], the “EC1.5x for Smn protein expression” value was “**** (an EC1.5x≤0.3 μM is indicated by four stars (****))”; the “maximum fold (Fold) increase” value was “**** (a fold increase between >1.5 and ≤1.65 is indicated by four stars (****))”. Also, the EC (1.5-fold increase) in series [2] is < 0.1 µM.

`COc1ccc(-c2cc(=O)n3cc(N4CCC(CN(C)C)CC4)ccc3n2)cc1OC` [Compound 573, 2-(3,4-dimethoxyphenyl)-7-{4-[(dimethylamino)methyl]piperidin-1-yl}-4H-pyrido[1,2-a]pyrimidin-4-one] yielded a melting point of 182 to 184 °C. Moreover, in series [1], the “EC1.5x for Smn protein expression” value was “** (an EC1.5× between >1 μM and ≤3 μM is indicated by two stars (**))”; the “maximum fold (Fold) increase” value was “**** (a fold increase between >1.5 and ≤1.65 is indicated by four stars (****))”. For the same compound, in series [2], the EC (1.5-fold increase) was 0.3 to 1 µM.

As for `Cc1cc(C2CCN(C)CC2)cn2c(=O)cc(-c3ccc4nn(C)cc4c3)nc12` [Compound 705, 9-methyl-2-(2-methyl-2H-indazol-5-yl)-7-(1-methylpiperidin-4-yl)-4H-pyrido[1,2-a]pyrimidin-4-one], the melting point was in the range of 222 to 227 °C. Moreover, in series [1], the “EC1.5x for Smn protein expression” value is given as “**** (an EC1.5x≤0.3 μM is indicated by four stars (****))” and the “maximum fold (Fold) increase” value is given as “***** (a fold increase >1.65 is indicated by five stars (*****))”. Moreover, the EC (1.5-fold increase) in series [2] is < 0.1 µM.

Regarding `COc1ccc(-c2cc(=O)n3cc(C4CCCNC4)ccc3n2)cc1OC` (stereo not drawn) [Compound 406, 2-(3,4-dimethoxyphenyl)-7-(piperidin-3-yl)-4H-pyrido[1,2-a]pyrimidin-4-one], the melting point lay in the range of 126 to 129 °C. Also, in series [1], the “EC1.5x for Smn protein expression” value is “* (An EC1.5× for Smn protein expression between >3 μM and ≤10 μM is indicated by one star (*))”; the “maximum fold (Fold) increase” value is “*** (a fold increase between >1.35 and ≤1.5 is indicated by three stars (***))”. The EC (1.5-fold increase) in series [2] fell in the range of 0.3 to 1 µM.

As for `COc1ccc(-c2cc(=O)n3cc(N(C)[C@@H]4CCNC4)ccc3n2)cc1F` [Compound 233, 2-(3-fluoro-4-methoxyphenyl)-7-{methyl[(3R)-pyrrolidin-3-yl]amino}-4H-pyrido[1,2-a]pyrimidin-4-one], the melting point lay in the range of 143 to 147 °C. The “maximum fold (Fold) increase” value in series [1] is “* (A maximum fold increase of ≤1.2 is indicated by one star (*))”. The EC (1.5-fold increase) in series [2] lay in the range of 0.3 to 1 µM.

Regarding `C[C@H]1CN(c2ccc3nc(-c4ccc5c(cnn5C)c4)cc(=O)n3c2)CCN1` [Compound 553, 2-(1-methyl-1H-indazol-5-yl)-7-[(3S)-3-methylpiperazin-1-yl]-4H-pyrido[1,2-a]pyrimidin-4-one], the melting point lay in the range of 206 to 208 °C. Also, in series [1], the “EC1.5x for Smn protein expression” value is given as “**** (an EC1.5x≤0.3 μM is indicated by four stars (****))” and the “maximum fold (Fold) increase” value is given as “***** (a fold increase >1.65 is indicated by five stars (*****))”. Also, in series [2], the EC (1.5-fold increase) is 0.1 to 0.3 µM.

Compound `COc1cccc(-c2cc(=O)n3cc(N4CCNCC4)ccc3n2)n1` [Compound 227, 2-(6-methoxypyridin-2-yl)-7-(piperazin-1-yl)-4H-pyrido[1,2-a]pyrimidin-4-one] gave a melting point of 214 to 218 °C. For the same compound, in series [1], the “maximum fold (Fold) increase” value is “*** (a fold increase between >1.35 and ≤1.5 is indicated by three stars (***))”. Besides, the EC (1.5-fold increase) in series [2] was in the range of 1 to 3 µM.

For the compound `CCCc1nc(C)cn2nc(-c3cc(=O)n4cc(C5=CCNCC5)ccc4n3)cc12` [Compound 762, 2-(6-methyl-4-propylpyrazolo[1,5-a]pyrazin-2-yl)-7-(1,2,3,6-tetrahydropyridin-4-yl)-4H-pyrido[1,2-a]pyrimidin-4-one], the melting point was 257 to 260 °C. Besides, in series [1], the “EC1.5x for Smn protein expression” value was “**** (an EC1.5x≤0.3 μM is indicated by four stars (****))” and the “maximum fold (Fold) increase” value is reported as “***** (a fold increase >1.65 is indicated by five stars (*****))”. Further, the EC (1.5-fold increase) in series [2] was < 0.1 µM.

Source of the values: patent US11753407B2, “Compounds for treating spinal muscular atrophy” (PTC Therapeutics, Inc., priority 2012, dated 2023).
